Results published in patent US12539284B2, “Aminoxy acid-based anti-cancer stem cell compounds and methods thereof” (Westlake University, priority 2019, dated 2026).
Read-outs that look alike come from different tables or passages of the source.

Experiments:
HEY A8 CSCs (HEY A8 SP) = experiment: Toxicity / cell viability (CellTiter-Glo) on HEY A8 spheres (CSCs); format: cell-based, human; settings: for selectivity towards ovarian CSCs over ovarian cancer cells and normal cells: from IC50 values, FIG. 4 and Table 1
Procedure: Aminoxy acids were synthesized by the standard peptide coupling procedures. The CSCs are obtained by spheroids culturing under suspension condition. It is confirmed that these spheres indeed contain significant higher population of cells with CD133 antigenic phenotype, which has been reported can represent ovarian CSCs (FIG. 2). After treatment with compounds for 48 h, the cell viability of CSCs was measured by using CELLTITER-GLO® luminescent reagent. Compound sff-3-85 (“Example 2”) were used at the dose of 10 μM, all the other compounds were used at the concentration of 5 μM. All experiments were performed three times and data is presented as mean±SD.
(§1) Cell Cultures Human ovarian carcinoma cell lines HEY A8 and SKOV3 were gifts from Professor Alice Wong's group (The University of Hong Kong). Cells were grown in Dulbecco's Modified Eagle (DMEM) medium supplemented with 10% FBS and 1% penicillin/streptomycin at 37° C. in a humidified atmosphere containing […] CO2. Isolation and culture of spheres were performed in serum-free stem-cell-selective condition as described in literature Ip etl. Oncogene 2014, 5, 9133-9149. Briefly, 1-2 weeks after plating, non-adherent spherical clusters of cells could be observed and were separated from single cells by low speed centrifugation. After 8th to 10th passages, the non-adherent spherical clusters of cells appeared as distinct spheres. Using this selection condition, HEY A8 spheres (HEY A8 SP) or SKOV3 spheres (SKOV3 SP) could be enzymatically dissociated and reformed into spheres within 3 days under stem-cell-selective condition. To allow differentiation, dissociated sphere cells were plated on tissue culture plates in medium (MCDB 105:M199=1:1) supplemented with 10% FBS and 1% PS.
(§2) HEY A8 SP cells (5×10^4) were plated in triplicate in 10 mL serum-free MCDB105 medium in 100-mm Petri dish for 7 days to form spheres. Compound at the final concentration of 5 μM was added. The cells were further incubated at 37° C. for 48 h. After that cells were collected by centrifugation and the medium was removed. Then 100 μL CellTiter-Glo® Luminescent Cell Viability reagent was added into each tube, which was incubated for 10 min with shaking. After that, the reagent was transferred into 96-well plates and cell viability was measured using a microplate reader (SpectraMax 340PC 384, Molecular Devices).
as §2, with “A8 SP cells or SKOV3” for “A8”, “Then drugs” for “Compound”, “different” for “the final”, “were” for “of 5 μM was”, “μL of” for “μL”

HEY A8 CSCs [1] = experiment: In vivo tumor seeding ability of pretreated HEY A8 CSCs; settings: CSCs pretreated 2 days in vitro, 10^6 cells injected subcutaneously in mice, 25 days
Procedure: In vivo tumor seeding ability of cells after treatment with compound sff-2-112 (“Example 1”) or sff-2-132 (“Example 4”) was evaluated. Taxol was used as a negative control. For this experiment, HEY A8 CSCs were pretreated with sff-2-112 (“Example 1”), sff-2-132 (“Example 4”) or Taxol for 2 days in suspension medium, respectively. Then cells were allowed to proliferate in full medium in the absence of drugs for 10 days. After that, 10^6 cells were injected into mice subcutaneously. Tumor size was measured for 25 days after injection.

HEY A8 cells = experiment: Population of CD133+ cells by flow cytometry (PE-conjugated CD133 antibody); format: cell-based, human; settings: Paclitaxel 100 nM, 3 days; control 21.8%
Procedure: CD133 has been reported to be a marker of ovarian CSCs. After cells treated with synthetic molecule, the population of CD133^+ cells were measured. HEY A8 cells were treated with taxol (100 nM), compound sff-2-112 (“Example 1”) or sff-2-132 (“Example 4”) at the concentration of 15 μM. Medium containing 0.1% DMSO was used as a negative control.
A suspension of HEY A8 cells at the concentration of 2.5×10^4 cells/mL in DMEM medium were seeded into 60-mm cell culture dishes. Cells were incubated at 37° C. in a humidified atmosphere containing 5% CO2 for 24 h, followed by the addition of 4 mL fresh medium or medium containing Paclitaxel (100 nM), sff-2-112 (15 μM) or compound sff-2-132 (15 μM). Medium containing 0.1% DMSO was used as a negative control. After 3 days, the medium was removed and cells were washed with cold PBS twice, and then stained with PE-conjugated CD133 antibody according to the manufacture's instruction. The fluorescence was analyzed by flow cytometry.

HEK293 = experiment: Toxicity against normal cell line HEK293; format: cell-based
Source text: (§3) Fourteen compounds including aminoxy acid monomers and dipeptides have been identified to show toxicity against HEY A8 CSCs. The half maximal inhibitory concentration (IC50) values of compounds sff-2-112, sff-2-124, sff-2-132 and sff-2-100 towards adherent cancer HEY A8, SKOV3 cells and CSCs were further determined. […] Especially compound sff-2-132, its selectivity to CSCs is up to 60-fold higher than that to cancer cells. Their toxicity against other normal cell lines NIH3T3, HEK293 and MDCK were also tested and the IC50 values were summarized in Table 1.

MDCK = experiment: Toxicity against normal cell line MDCK; format: cell-based
Source text: as §3

HEY A8 cancer cells = experiment: Cell viability (CellTiter-Glo) on adherent HEY A8 cancer cells; format: cell-based, human; settings: read-out: IC50 Cancer Cell HeyA8
Procedure: as §1
(§4) HEY A8 or SKOV3 cancer Cells were plated in triplicate in 0.1 mL full medium in 96-well plates for 24 h. After that, the medium was changed to the fresh prepared medium with various concentrations of compounds. Cells were incubated for another 48 h. Then the cell viability was measured by CellTiter-Glo® Luminescent Cell Viability reagent according to the manufacture's instruction. The luminescence at 550 nm was measured using a microplate reader (SpectraMax 340PC 384, Molecular Devices).

NIH3T3 = experiment: Toxicity against normal cell line NIH3T3; format: cell-based
Source text: as §3

Huh 7 CD133- cells = experiment: Cell viability (CellTiter-Glo) of sorted Huh 7 CD133- cells; format: cell-based; settings: 48 h, different doses
Procedure: (§5) Huh-7 cells were stained with PE-conjugated CD133 antibody (HCC cancer stem cell marker) according to the manufacturer's instructions. Then CD133^+ cells (Huh 7 cancer stem cells) and CD133− cells were sorted by flow cytometry and seeded into 96-well plate with fresh DMEM medium. After 24 h, medium was changed to fresh medium with compound sff-2-112 (“Example 1”) or sff-2-124 (“Example 3”) at different doses. After 48 h, cell viability was analyzed by CellTiter-Glo luminescent agent.

SKOV3 cancer cells = experiment: Cell viability (CellTiter-Glo) on adherent SKOV3 cancer cells; format: cell-based, human; settings: 48 h incubation
Procedure: as §1, §4

[2] = test system: Huh 7 cancer stem cells (CD133+); experiment: Cell viability (CellTiter-Glo) of sorted Huh 7 CD133+ cells; format: cell-based; settings: 48 h
Procedure: as §5

HEY A8 CSCs [3] = experiment: Apoptosis, Annexin V / PI flow cytometry, CSCs; format: cell-based, human; settings: 5 μM, 2 days; DMSO 4.92%
Procedure: A suspension of HEY A8 cells at the concentration of 5×10^4 cells/mL in DMEM medium were seeded into 60-mm cell culture dishes. Cells were incubated at 37° C. in a humidified atmosphere containing 5% CO2 for 24 h followed by the addition of 4 mL fresh medium or medium containing compound sff-2-112 (“Example 1”) or sff-2-132 (“Example 4”) at different concentration. Medium containing 0.1% DMSO was used as negative control. After 2 days, the medium was aspirated and cells were washed with cold PBS twice, and then stained with PI and Annexin V according to the manufacture's instruction (Dead Cell Apoptosis Kit with Annexin V Alexa Fluor™ 488 & Propidium Iodide, Thermo Fisher). Cells were analyzed by flow cytometry (BD FACS CantoII Analyzer).

SMILES: CCC(C)[C@@H](ONC(=O)c1cc(C(F)(F)F)cc(C(F)(F)F)c1)C(=O)Nc1ccccc1 (stereo partly shown) [Amy-1-4]
- cell viability of HEY A8 CSCs (toxicity) (HEY A8 CSCs (HEY A8 SP); compound 5 μM, 48 h): significantly decreased the cell viability

SMILES: O=C(NO[C@H](Cc1cc2ccccc2[nH]1)C(=O)Nc1ccccc1)c1cc(C(F)(F)F)cc(C(F)(F)F)c1 [Amy-1-8]
- cell viability of HEY A8 CSCs (toxicity) (HEY A8 CSCs (HEY A8 SP); compound 5 μM, 48 h): significantly decreased the cell viability

SMILES: O=C(NO[C@H](COCc1ccccc1)C(=O)NOc1ccccc1)c1cc(C(F)(F)F)cc(C(F)(F)F)c1 [FPM-1-187]
- cell viability of HEY A8 CSCs (toxicity) (HEY A8 CSCs (HEY A8 SP); compound 5 μM, 48 h): significantly decreased the cell viability

SMILES: CC(=O)O[C@H]1C(=O)[C@@]2(C)[C@H]([C@H](OC(=O)c3ccccc3)[C@]3(O)C[C@H](OC(=O)[C@H](O)[C@@H](NC(=O)c4ccccc4)c4ccccc4)C(C)=C1C3(C)C)[C@]1(OC(C)=O)CO[C@@H]1C[C@@H]2O [paclitaxel, reference compound]
- tumor-seeding ability / tumor size of pretreated cells (HEY A8 CSCs [1]): resistant
- population of CD133+ cells after treatment (HEY A8 cells): 31.6%

SMILES: O=C(NO[C@H](COCc1ccccc1)C(=O)NO[C@@H](Cc1ccccc1)C(=O)Nc1ccccc1)c1cc(C(F)(F)F)cc(C(F)(F)F)c1 [sff-2-100]
- IC50 (HEK293; Homo sapiens, HEK293): 18.3 ± 0.6 µM
- IC50 (MDCK; Canis lupus familiaris, MDCK): 18 ± 0.7 µM
- IC50 (HEY A8 cancer cells; Homo sapiens, HEY A8, 48 h incubation): 22.4 ± 1 µM
- IC50 (NIH3T3; Mus musculus, NIH3T3): 2.8 ± 0.9 µM
- rank of toxicity among the 14 molecules on HEY A8 CSCs (HEY A8 CSCs (HEY A8 SP); 5 μM, 48 h): highest toxicity
- IC50 (HEY A8 CSCs (HEY A8 SP); Homo sapiens, HEY A8 spheres, 48 h incubation, read-out: IC50 Cancer Stem Cell HeyA8 SP): 2.8 ± 0.9 µM
- cell viability of HEY A8 CSCs (toxicity) (HEY A8 CSCs (HEY A8 SP); compound 5 μM, 48 h): significantly decreased the cell viability
- selectivity towards ovarian CSCs over ovarian cancer cells and normal cells (HEY A8 CSCs (HEY A8 SP)): selectively induce the death of ovarian CSCs

SMILES: CC(C)C[C@@H](ONC(=O)c1cc(C(F)(F)F)cc(C(F)(F)F)c1)C(=O)Nc1ccccc1 [sff-2-124]
- death of Huh 7 CD133- cells (Huh 7 CD133- cells): induce the death
- IC50 (HEK293): 67.2 ± 4.2 µM
- IC50 (MDCK): 13.2 ± 0.9 µM
- IC50 (SKOV3 cancer cells): 18.6 ± 5.1 µM
- IC50 (HEY A8 cancer cells; 48 h incubation): 20.8 ± 0.9 µM
- IC50 (NIH3T3): 15.1 ± 0.5 µM
- toxicity to huh7 CD133+ population compared with CD133- cells [2]: higher
- death of Huh 7 CD133+ cells ([2]; different doses): induce the death
- cell viability of HEY A8 CSCs (toxicity) (HEY A8 CSCs (HEY A8 SP); compound 5 μM, 48 h): significantly decreased the cell viability
- selectivity towards ovarian CSCs over ovarian cancer cells and normal cells (HEY A8 CSCs (HEY A8 SP)): selectively induce the death of ovarian CSCs

SMILES: C[C@H](ONC(=O)c1cc(C(F)(F)F)cc(C(F)(F)F)c1)C(=O)Nc1ccccc1 [sff-3-85]
- cell viability of HEY A8 CSCs (toxicity) (HEY A8 CSCs (HEY A8 SP); compound 10 μM, 48 h): significantly decreased the cell viability

SMILES: O=C(NO[C@H](COCc1ccccc1)C(=O)Nc1ccc(F)cc1)c1cc(C(F)(F)F)cc(C(F)(F)F)c1 [sff-3-86]
- Annexin V positive cells, CSCs (HEY A8 CSCs [3]): 30.4%
- cell viability of HEY A8 CSCs (toxicity) (HEY A8 CSCs (HEY A8 SP); compound 5 μM, 48 h): significantly decreased the cell viability

SMILES: CC(C)COC(=O)[C@@H](COCc1ccccc1)ONC(=O)c1cc(C(F)(F)F)cc(C(F)(F)F)c1 [sff-3-87]
- cell viability of HEY A8 CSCs (toxicity) (HEY A8 CSCs (HEY A8 SP); compound 5 μM, 48 h): significantly decreased the cell viability

SMILES: O=C(NO[C@H](COCc1ccccc1)C(=O)Nc1ccccc1)c1ccc(C(F)(F)F)cc1 [sff-3-91]
- cell viability of HEY A8 CSCs (toxicity) (HEY A8 CSCs (HEY A8 SP); compound 5 μM, 48 h): significantly decreased the cell viability

SMILES: CC(OCc1ccccc1)[C@@H](ONC(=O)c1cc(C(F)(F)F)cc(C(F)(F)F)c1)C(=O)Nc1ccccc1 (stereo partly shown) [sff-3-98-2]
- cell viability of HEY A8 CSCs (toxicity) (HEY A8 CSCs (HEY A8 SP); compound 5 μM, 48 h): significantly decreased the cell viability

SMILES: CC(C)(C)OC[C@@H](ONC(=O)c1cc(C(F)(F)F)cc(C(F)(F)F)c1)C(=O)Nc1ccccc1 [sff-3-100]
- cell viability of HEY A8 CSCs (toxicity) (HEY A8 CSCs (HEY A8 SP); compound 5 μM, 48 h): significantly decreased the cell viability

SMILES: CC(C)(C)Oc1ccc(C[C@@H](ONC(=O)c2cc(C(F)(F)F)cc(C(F)(F)F)c2)C(=O)Nc2ccccc2)cc1 [sff-3-101]
- cell viability of HEY A8 CSCs (toxicity) (HEY A8 CSCs (HEY A8 SP); compound 5 μM, 48 h): significantly decreased the cell viability
